What was measured:
[1] = system: Magnaporthe grisea (Pyricularia oryzae); experiment: microbe, parasite or virus in culture; format: cell-based; settings: 72 h, read-out: control of Magnaporthe grisea
[2] = system: Glomerella lagenarium (Colletotrichum lagenarium); experiment: Glomerella lagenarium (Colletotrichum lagenarium) / liquid culture (anthracnose); format: cell-based; settings: Colletotrichum orbiculare; read-out: control of Glomerella lagenarium
Fusarium culmorum [3] = experiment: microbe, parasite or virus in culture; format: cell-based; settings: read-out: control of Fusarium culmorum
[4] = system: Botryotinia fuckeliana (Botrytis cinerea); experiment: Botryotinia fuckeliana (Botrytis cinerea) / liquid culture (gray mould); format: cell-based; settings: 72 h, read-out: control of Botryotinia fuckeliana
Fusarium culmorum [5] = experiment: whole plant or invertebrate; format: in vivo; settings: in Triticum aestivum, read-out: control of Fusarium culmorum
[6] = system: Monographella nivalis (Microdochium nivale); experiment: Monographella nivalis (Microdochium nivale) / liquid culture (foot rot cereals); format: cell-based; settings: 96 h, read-out: control of Monographella nivalis

Row | Compound | inhibition of growth at 200 ppm [1] | inhibition of growth at 200 ppm [2] | inhibition of growth at 200 ppm (Fusarium culmorum [3]) | inhibition of growth at 200 ppm [4] | pest or weed control at 200 ppm (Fusarium culmorum [5]) | inhibition of growth at 200 ppm [6] | melting point
1 | CC(C)C(C)(Cc1ccccc1)NC(=O)c1cnc2c(F)cccc2c1 (stereo not shown) [Compound E-5, N-(1-benzyl-1,2-dimethyl-propyl)-8-fluoro-quinoline-3-carboxamide] | ≥ 80% | ≥ 80% | ≥ 80% | ≥ 80% | ≥ 80% | ≥ 80% | –
2 | O=C(NC(CCC(F)(F)F)Cc1ccccc1)c1cnc2c(F)cccc2c1 (stereo not shown) [Compound E-16, N-(1-benzyl-4,4,4-trifluoro-butyl)-8-fluoro-quinoline-3-carboxamide] | ≥ 80% | – | ≥ 80% | ≥ 80% | ≥ 80% | – | 157 to 161 °C
3 | CC(C)CC(C)(Cc1ccc(C#N)cc1)NC(=O)c1cnc2c(F)cccc2c1 (stereo not shown) [Compound E-32, N-[1-[(4-cyanophenyl)methyl]-1,3-dimethyl-butyl]-8-fluoro-quinoline-3-carboxamide] | ≥ 80% | ≥ 80% | ≥ 80% | ≥ 80% | – | – | 67 to 69 °C
4 | CC(C)CC(C)(Cc1ccccc1C#N)NC(=O)c1cnc2c(F)cccc2c1 (stereo not shown) [Compound E-44, N-[1-[(2-cyanophenyl)methyl]-1,3-dimethyl-butyl]-8-fluoro-quinoline-3-carboxamide] | ≥ 80% | ≥ 80% | ≥ 80% | ≥ 80% | ≥ 80% | – | 43 to 44 °C
5 | CC(Cc1ccccc1)(CC1CC1)NC(=O)c1cnc2c(F)cccc2c1 (stereo not shown) [Compound E-49, N-(1-benzyl-2-cyclopropyl-1-methyl-ethyl)-8-fluoro-quinoline-3-carboxamide] | ≥ 80% | ≥ 80% | ≥ 80% | ≥ 80% | ≥ 80% | ≥ 80% | –
6 | CC(F)(F)CC(C)(Cc1ccccc1)NC(=O)c1cnc2c(F)cccc2c1 (stereo not shown) [Compound E-50, N-(1-benzyl-3,3-difluoro-1-methyl-butyl)-8-fluoro-quinoline-3-carboxamide] | ≥ 80% | ≥ 80% | ≥ 80% | ≥ 80% | ≥ 80% | – | –
7 | C=C(C)CC(C)(NC(=O)c1cnc2c(F)cccc2c1)C(F)(F)c1ccccc1 (stereo not shown) [Compound E-51, N-[1-[difluoro(phenyl)methyl]-1,3-dimethyl-but-3-enyl]-8-fluoro-quinoline-3-carboxamide] | ≥ 80% | ≥ 80% | ≥ 80% | ≥ 80% | ≥ 80% | – | –
8 | CC(F)(F)CC(C)(Cc1ccccc1)NC(=O)c1cnc2ccccc2c1 (stereo not shown) [Compound E-52, N-(1-benzyl-3,3-difluoro-1-methyl-butyl)quinoline-3-carboxamide] | ≥ 80% | ≥ 80% | ≥ 80% | ≥ 80% | ≥ 80% | – | 131 to 133 °C
9 | CC(C)CC(C)(NC(=O)c1cnc2c(F)cccc2c1)C(F)(F)c1ccccc1 (stereo not shown) [Compound E-54, N-[1-[difluoro(phenyl)methyl]-1,3-dimethyl-butyl]-8-fluoro-quinoline-3-carboxamide] | ≥ 80% | ≥ 80% | ≥ 80% | ≥ 80% | – | ≥ 80% | –
10 | CC(C)(F)CC(C)(Cc1ccccc1)NC(=O)c1cnc2c(F)cccc2c1 (stereo not shown) [Compound E-56, N-(1-benzyl-3-fluoro-1,3-dimethyl-butyl)-8-fluoro-quinoline-3-carboxamide] | ≥ 80% | ≥ 80% | ≥ 80% | ≥ 80% | ≥ 80% | ≥ 80% | –
11 | CC(C)CC(C)(NC(=O)c1cnc2ccccc2c1)C(F)(F)c1ccccc1 (stereo not shown) [Compound E-59, N-[1-[difluoro(phenyl)methyl]-1,3-dimethyl-butyl]quinoline-3-carboxamide] | ≥ 80% | – | ≥ 80% | ≥ 80% | ≥ 80% | ≥ 80% | –
12 | CC(Cc1ccccc1)(CC(F)(F)F)NC(=O)c1cnc2c(C#N)cccc2c1 (stereo not shown) [Compound E-62, N-(1-benzyl-3,3,3-trifluoro-1-methyl-propyl)-8-cyano-quinoline-3-carboxamide] | ≥ 80% | ≥ 80% | ≥ 80% | ≥ 80% | ≥ 80% | – | 175 to 179 °C
13 | CC(C)CC(C)(Cc1ccccc1)NC(=O)c1cnc2cc(Cl)ccc2c1 (stereo not shown) [Compound E-65, N-(1-benzyl-1,3-dimethyl-butyl)-7-chloro-quinoline-3-carboxamide] | ≥ 80% | – | ≥ 80% | ≥ 80% | – | – | 172 to 174 °C
14 | CC(Cc1ccc(F)cc1)(CC(F)(F)F)NC(=O)c1cnc2c(F)cccc2c1 (stereo not shown) [Compound E-66, 8-fluoro-N-[3,3,3-trifluoro-1-[(4-fluorophenyl)methyl]-1-methyl-propyl]quinoline-3-carboxamide] | ≥ 80% | ≥ 80% | ≥ 80% | ≥ 80% | ≥ 80% | – | 146 to 147 °C
15 | CC(Cc1ccccc1)(CC(F)(F)F)NC(=O)c1cnc2cc(Cl)ccc2c1 (stereo not shown) [Compound E-69, N-(1-benzyl-3,3,3-trifluoro-1-methyl-propyl)-7-chloro-quinoline-3-carboxamide] | ≥ 80% | ≥ 80% | ≥ 80% | ≥ 80% | ≥ 80% | – | 174 to 176 °C
16 | CC(Cc1cccc(F)c1)(CC(F)(F)F)NC(=O)c1cnc2c(F)cccc2c1 (stereo not shown) [Compound E-99, 8-fluoro-N-[3,3,3-trifluoro-1-[(3-fluorophenyl)methyl]-1-methyl-propyl]quinoline-3-carboxamide] | – | ≥ 80% | ≥ 80% | ≥ 80% | ≥ 80% | ≥ 80% | 149 to 151 °C
17 | C=C(C)CC(COC)(Cc1ccccc1)NC(=O)c1cnc2c(F)cccc2c1 (stereo not shown) [Compound E-103, N-[1-benzyl-1-(methoxymethyl)-3-methyl-but-3-enyl]-8-fluoro-quinoline-3-carboxamide] | – | ≥ 80% | ≥ 80% | ≥ 80% | ≥ 80% | ≥ 80% | 147 to 149 °C
18 | CC(Cc1ccccc1)(CC1CCC1)NC(=O)c1cnc2c(F)cccc2c1 (stereo not shown) [Compound E-112, N-(1-benzyl-2-cyclobutyl-1-methyl-ethyl)-8-fluoro-quinoline-3-carboxamide] | – | ≥ 80% | ≥ 80% | ≥ 80% | – | ≥ 80% | 125 to 127 °C
19 | COC(C)(C)CC(C)(Cc1ccccc1)NC(=O)c1cnc2c(F)cccc2c1 (stereo not shown) [Compound E-118, N-(1-benzyl-3-methoxy-1,3-dimethyl-butyl)-8-fluoro-quinoline-3-carboxamide] | – | ≥ 80% | ≥ 80% | ≥ 80% | – | ≥ 80% | 118 to 120 °C
20 | COc1ccc2cc(C(=O)NC(C)(Cc3ccccc3)CC(C)C)cnc2c1 (stereo not shown) [Compound E-122, N-(1-benzyl-1,3-dimethyl-butyl)-7-methoxy-quinoline-3-carboxamide] | – | – | – | – | – | ≥ 80% | 136 to 138 °C
21 | COc1cccc2cc(C(=O)NC(C)(Cc3ccccc3)CC(C)C)cnc12 (stereo not shown) [Compound E-123, N-(1-benzyl-1,3-dimethyl-butyl)-8-methoxy-quinoline-3-carboxamide] | – | – | ≥ 80% | ≥ 80% | – | ≥ 80% | 155 to 156 °C
22 | C[C@](Cc1ccccc1)(CC(F)(F)F)NC(=O)c1cnc2c(F)c(F)ccc2c1 [Compound F-37, N-[(1S)-1-benzyl-3,3,3-trifluoro-1-methyl-propyl]-7,8-difluoro-quinoline-3-carboxamide] | ≥ 80% | ≥ 80% | ≥ 80% | ≥ 80% | ≥ 80% | – | –
23 | C[C@@](Cc1ccccc1)(CC(F)(F)F)NC(=O)c1cnc2c(F)c(F)ccc2c1 [Compound F-38, N-[(1R)-1-benzyl-3,3,3-trifluoro-1-methyl-propyl]-7,8-difluoro-quinoline-3-carboxamide] | ≥ 80% | ≥ 80% | ≥ 80% | ≥ 80% | – | – | –
24 | CC(F)(F)C[C@@](C)(Cc1ccccc1)NC(=O)c1cnc2c(F)cccc2c1 [Compound F-40, N-[(1R)-1-benzyl-3,3-difluoro-1-methyl-butyl]-8-fluoro-quinoline-3-carboxamide] | ≥ 80% | ≥ 80% | ≥ 80% | ≥ 80% | ≥ 80% | – | –

Reference: patent US10477864B2, “Microbiocidal quinoline (thio)carboxamide derivatives” (priority 2016, dated 2019)
